In the experiment the test system is subject's skin. The experiment in a line: pre-cooling skin treatment followed by cooling (freeze) treatment at subject's flank, compared to a control site. In kind it is in vivo, human. The note with it: general statement of the inventors' finding. On the procedure: A mixture of trehalose, water, and […] (PG) was tested as a pre-cooling skin treatment. The mixture was formed by combining 100 grams of trehalose, 100 mL of water, and 40 mL of PG. The trehalose was expected to provide cryoprotection, while the water and PG were expected to act as penetration-enhancing excipients. A first site at a subject's right flank was given the pre-cooling skin treatment, while an opposite second site at the subject's left flank was designated as a control. The pre-cooling treatment at the first site included placing a small piece of rayon fabric soaked in […] of the mixture directly onto the subject's skin and waiting for 12 minutes. It was expected that passive diffusion of trehalose into the subject's skin occurred to some extent during this period. Next, an ultrasound cavitation device (40 kHz) was moved top-to-bottom and bottom-to-top over the subject's skin at the first site for 3 minutes. During this period, 5 mL of the mixture was poured over the subject's skin at the first site.
After the pre-cooling skin treatment at the first site, an applicator having a rectangular plate-type heat-transfer surface with an area of 1.7 square inches was used to execute a cooling treatment at the first and second sites. […]

Experimental findings from US20230285260A1, “USE OF SACCHARIDES FOR CRYOPROTECTION AND RELATED TECHNOLOGY” (Zeltiq Aesthetics, Inc., priority 2017, published 2023) are described below.

Regarding `OC[C@H]1O[C@H](O[C@H]2O[C@H](CO)[C@@H](O)[C@H](O)[C@H]2O)[C@H](O)[C@@H](O)[C@@H]1O` [trehalose], the “reducing cryoinjury to skin cells” value is on record as “effective”.
